Test results taken from US20070128217A1 (priority 2003, published 2007).

How the values were obtained:
[1] = system: rabbit serum obtained by immunizing a rabbit with the SARS-CoV strain Frankfurt 1; type: binding; set-up: Binding of a rabbit serum to linear peptides / Binding of a rabbit serum to looped peptides / Rabbit serum linear peptides / Rabbit serum looped peptides / Binding of a rabbit serum to linear peptides of protein N of SARS-CoV Urbani (Rabbit serum linear peptides) / Binding of a rabbit serum to looped/cyclic peptides of protein N of SARS-CoV Urbani (Rabbit serum looped peptides): unit not given here
[2] = system: antibodies in sera from SARS patients (sera 1a, 1b, 2, 6, 37, 62, London, SARS-yellow, SARS-green); type: binding, human; set-up: Binding of serum 6 to linear peptides of protein X1 of SARS-CoV Urbani / Binding of serum 37 to linear peptides of protein X1 of SARS-CoV Urbani / Binding of serum 6 to looped/cyclic peptide (PEPSCAN-ELISA) / Binding of serum 37 to looped/cyclic peptide (PEPSCAN-ELISA) / Binding of serum 37 to looped/cyclic peptides of protein X1 of SARS-CoV Urbani / Binding of serum 6 to linear peptides of protein X2 / Binding of serum 37 to linear peptides of protein X2 / Binding of serum 37 to looped/cyclic peptides of protein X2 of SARS-CoV Urbani / Binding of serum 6 to linear peptides of protein M of SARS-CoV Urbani / Binding of serum 37 to linear peptides of protein M of SARS-CoV Urbani / Binding of serum 6 to looped/cyclic peptides of protein M of SARS-CoV Urbani / Binding of serum 37 to looped/cyclic peptides of protein M of SARS-CoV Urbani / Binding of serum 6 to linear peptides of protein X3 of SARS-CoV Urbani / Binding of serum 37 to linear peptides of protein X3 of SARS-CoV Urbani / Binding of serum 37 to looped/cyclic peptides of protein X3 of SARS-CoV Urbani / Binding of serum 6 to linear peptides of protein X4 of SARS-CoV Urbani / Binding of serum 37 to linear peptides of protein X4 of SARS-CoV Urbani / Binding of serum 37 to looped/cyclic peptides of protein X4 of SARS-CoV Urbani / Binding of serum 6 to linear peptides of protein X5 of SARS-CoV Urbani / Binding of serum 37 to linear peptides of protein X5 of SARS-CoV Urbani / Binding of serum 37 to looped/cyclic peptides of protein X5 of SARS-CoV Urbani / Binding of serum 6 to linear peptides of protein N of SARS-CoV Urbani / Binding of serum 37 to linear peptides of protein N of SARS-CoV Urbani / Binding of serum 6 to linear peptide (PEPSCAN-ELISA) / Binding of serum 1a to looped/cyclic peptides of protein N of SARS-CoV Urbani / Binding of serum 1b to looped/cyclic peptides of protein N of SARS-CoV Urbani / Binding of serum 2 to looped/cyclic peptides of protein N of SARS-CoV Urbani / Binding of serum 6 to looped/cyclic peptides of protein N of SARS-CoV Urbani / Binding of serum 37 to looped/cyclic peptides of protein N of SARS-CoV Urbani / Binding of serum 62 to looped/cyclic peptides of protein N of SARS-CoV Urbani / Binding of serum London to looped/cyclic peptides of protein N of SARS-CoV Urbani / Binding of serum SARS-green to looped/cyclic peptides of protein N of SARS-CoV Urbani: unit not given here
[3] = system: recombinant human anti-SARS-CoV antibody 03-018; type: binding; set-up: Binding of antibody 03-018 to linear peptides of the N protein of SARS-CoV Urbani / Binding of antibody 03-018 to looped/cyclic peptides of the N protein of SARS-CoV Urbani: unit not given here
[4] = system: control sera (pooled serum of ten healthy LUMC hospital workers; commercial negative donor pooled serum from the Dutch bloodbank); type: binding, human

| Sequence | Binding of a rabbit serum to linear peptides of protein N of SARS-CoV Urbani (Rabbit serum linear peptides) [1] | Binding of a rabbit serum to looped/cyclic peptides of protein N of SARS-CoV Urbani (Rabbit serum looped peptides) [1] | Binding of serum 1a to linear peptides of protein N of SARS-CoV Urbani [2] | Binding of serum 1a to looped/cyclic peptides of protein N of SARS-CoV Urbani [2] | Binding of serum 1b to linear peptides of protein N of SARS-CoV Urbani [2] | Binding of serum 1b to looped/cyclic peptides of protein N of SARS-CoV Urbani [2] | Binding of serum 2 to linear peptides of protein N of SARS-CoV Urbani [2] | Binding of serum 2 to looped/cyclic peptides of protein N of SARS-CoV Urbani [2] | Binding of serum 6 to linear peptides of protein N of SARS-CoV Urbani [2] | Binding of serum 6 to looped/cyclic peptides of protein N of SARS-CoV Urbani [2] | Binding of serum 37 to linear peptides of protein N of SARS-CoV Urbani [2] | Binding of serum 37 to looped/cyclic peptides of protein N of SARS-CoV Urbani [2] | Binding of serum 62 to linear peptides of protein N of SARS-CoV Urbani [2] | Binding of serum 62 to looped/cyclic peptides of protein N of SARS-CoV Urbani [2] | Binding of serum London to linear peptides of protein N of SARS-CoV Urbani [2] | Binding of serum London to looped/cyclic peptides of protein N of SARS-CoV Urbani [2] | Binding of serum SARS-green to linear peptides of protein N of SARS-CoV Urbani [2] | Binding of serum SARS-green to looped/cyclic peptides of protein N of SARS-CoV Urbani [2] | Binding of serum SARS-yellow to linear peptides of protein N of SARS-CoV Urbani [2] | Binding of serum SARS-yellow to looped/cyclic peptides of protein N of SARS-CoV Urbani [2] | further results |
| --- | --- | --- | --- | --- | --- | --- | --- | --- | --- | --- | --- | --- | --- | --- | --- | --- | --- | --- | --- | --- | --- |
| MDDFSRQLQNSMSGA | 0.2 | 0.4 | 0.2 | 0.4 | 0.1 | 0.1 | 0.3 | 0.4 | 0.2 | 0.1 | 0.8 | 0.4 | 0.7 | 0.4 | 0.8 | 0.3 | 0.6 | 0.3 | 0.7 | 0.2 | Binding of antibody 03-018 to linear peptides of the N protein of SARS-CoV Urbani [3]: 0.2; Binding of antibody 03-018 to looped/cyclic peptides of the N protein of SARS-CoV Urbani [3]: 0.2; Control Serum Blood-Bank Looped peptides [4]: 0.5; Control serum Blood-bank linear peptides [4]: 1.0; Control serum LUMC linear peptides [4]: 0.7; Control serum LUMC looped peptides [4]: 0.5 |
| NVILLNKHIDAYKTF | 0.2 | 0.6 | 0.2 | 0.5 | 0.1 | 0.3 | 0.2 | 0.4 | 0.1 | 0.3 | 0.7 | 0.7 | 0.6 | 0.7 | 0.5 | 0.9 | 0.3 | 0.3 | 0.6 | 0.7 | Binding of antibody 03-018 to linear peptides of the N protein of SARS-CoV Urbani [3]: 0.1; Binding of antibody 03-018 to looped/cyclic peptides of the N protein of SARS-CoV Urbani [3]: 0.2; Control Serum Blood-Bank Looped peptides [4]: 0.8; Control serum Blood-bank linear peptides [4]: 0.7; Control serum LUMC linear peptides [4]: 0.7; Control serum LUMC looped peptides [4]: 0.7 |
